Reference: ChEMBL document CHEMBL5154899, “Spiropyrimidinetrione DNA Gyrase Inhibitors with Potent and Selective Antituberculosis Activity” (J Med Chem, 2022)
Values after ≈ are worked out from the molar mass of the structure shown.

Experiments:
Staphylococcus aureus = assay: microbe, parasite or virus in culture; details: ATTC 25923, 192 h
[1] = test system: Mycobacterium tuberculosis; assay: microbe, parasite or virus in culture; details: H37Rv, 192 h
Description: Antibacterial activity against Mycobacterium tuberculosis H37Rv assessed as inhibition of bacterial growth measured after 8 days by Alamar blue reagent based broth microdilution method

Escherichia coli = assay: microbe, parasite or virus in culture; details: ATTC 25922, 192 h
[2] = target: DNA gyrase subunit A/DNA gyrase subunit B (Mycobacterium tuberculosis (strain ATCC 25618 / H37Rv), UniProt P9WG45+P9WG47); assay: Inhibition of Mycobacterium tuberculosis H37Rv DNA gyrase
[3] = test system: Mycobacterium tuberculosis; assay: microbe, parasite or virus in culture; details: H37Rv, 264 h
Description: Antibacterial activity against wild type Mycobacterium tuberculosis H37Rv assessed as inhibition of bacterial growth incubated for 11 days

[4] = test system: Mycobacterium tuberculosis; assay: microbe, parasite or virus in culture; details: H37Rv, 264 h; remark: listed apart in the source
Description: Antibacterial activity against Mycobacterium tuberculosis H37Rv gyrA -FDASTetON-1 hypomorph assessed as inhibition of bacterial growth incubated for 11 days

DNA gyrase = DNA gyrase (Staphylococcus aureus, UniProt P0A0K8+P20831)
Sequence of DNA gyrase (P0A0K8 whole entry): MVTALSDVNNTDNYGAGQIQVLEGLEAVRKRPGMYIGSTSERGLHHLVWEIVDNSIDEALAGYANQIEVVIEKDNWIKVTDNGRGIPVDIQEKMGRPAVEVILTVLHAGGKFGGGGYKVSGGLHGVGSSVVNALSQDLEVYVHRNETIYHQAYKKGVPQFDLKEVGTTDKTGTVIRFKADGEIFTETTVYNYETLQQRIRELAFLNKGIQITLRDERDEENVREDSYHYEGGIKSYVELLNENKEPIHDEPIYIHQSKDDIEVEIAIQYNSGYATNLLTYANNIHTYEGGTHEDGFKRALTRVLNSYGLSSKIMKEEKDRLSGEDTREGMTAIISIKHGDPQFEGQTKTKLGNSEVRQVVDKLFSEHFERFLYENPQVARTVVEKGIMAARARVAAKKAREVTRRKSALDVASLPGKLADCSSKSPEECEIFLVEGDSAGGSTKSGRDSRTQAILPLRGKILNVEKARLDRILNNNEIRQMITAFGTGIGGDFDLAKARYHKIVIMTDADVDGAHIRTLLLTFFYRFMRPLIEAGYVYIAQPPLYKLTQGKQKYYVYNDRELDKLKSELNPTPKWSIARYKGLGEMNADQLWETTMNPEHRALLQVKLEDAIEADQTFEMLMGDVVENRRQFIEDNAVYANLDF
Sequence of DNA gyrase (P20831 whole entry): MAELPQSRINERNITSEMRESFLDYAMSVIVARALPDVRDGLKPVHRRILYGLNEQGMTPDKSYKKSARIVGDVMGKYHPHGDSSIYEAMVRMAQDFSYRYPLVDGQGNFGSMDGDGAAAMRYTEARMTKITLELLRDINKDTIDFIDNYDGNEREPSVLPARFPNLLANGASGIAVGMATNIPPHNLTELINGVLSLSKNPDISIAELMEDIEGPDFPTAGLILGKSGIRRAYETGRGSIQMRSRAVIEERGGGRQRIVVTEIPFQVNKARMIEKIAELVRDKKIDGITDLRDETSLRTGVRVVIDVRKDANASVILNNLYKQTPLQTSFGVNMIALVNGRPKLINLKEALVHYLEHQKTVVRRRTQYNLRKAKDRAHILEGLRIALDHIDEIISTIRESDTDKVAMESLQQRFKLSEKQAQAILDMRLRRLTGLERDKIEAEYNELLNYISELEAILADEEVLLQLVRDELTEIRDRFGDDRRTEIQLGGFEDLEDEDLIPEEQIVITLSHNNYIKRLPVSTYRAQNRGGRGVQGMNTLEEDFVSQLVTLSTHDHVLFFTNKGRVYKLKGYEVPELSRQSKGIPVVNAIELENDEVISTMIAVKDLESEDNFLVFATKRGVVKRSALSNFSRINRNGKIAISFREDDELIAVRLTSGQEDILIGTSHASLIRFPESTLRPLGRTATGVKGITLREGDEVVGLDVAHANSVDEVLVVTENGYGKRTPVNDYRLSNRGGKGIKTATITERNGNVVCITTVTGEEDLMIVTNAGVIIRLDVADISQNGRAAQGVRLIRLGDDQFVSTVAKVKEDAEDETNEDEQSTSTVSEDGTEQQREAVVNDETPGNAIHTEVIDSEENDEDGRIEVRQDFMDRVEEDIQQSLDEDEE

Sequence of DNA gyrase subunit A/DNA gyrase subunit B (P9WG45 whole entry): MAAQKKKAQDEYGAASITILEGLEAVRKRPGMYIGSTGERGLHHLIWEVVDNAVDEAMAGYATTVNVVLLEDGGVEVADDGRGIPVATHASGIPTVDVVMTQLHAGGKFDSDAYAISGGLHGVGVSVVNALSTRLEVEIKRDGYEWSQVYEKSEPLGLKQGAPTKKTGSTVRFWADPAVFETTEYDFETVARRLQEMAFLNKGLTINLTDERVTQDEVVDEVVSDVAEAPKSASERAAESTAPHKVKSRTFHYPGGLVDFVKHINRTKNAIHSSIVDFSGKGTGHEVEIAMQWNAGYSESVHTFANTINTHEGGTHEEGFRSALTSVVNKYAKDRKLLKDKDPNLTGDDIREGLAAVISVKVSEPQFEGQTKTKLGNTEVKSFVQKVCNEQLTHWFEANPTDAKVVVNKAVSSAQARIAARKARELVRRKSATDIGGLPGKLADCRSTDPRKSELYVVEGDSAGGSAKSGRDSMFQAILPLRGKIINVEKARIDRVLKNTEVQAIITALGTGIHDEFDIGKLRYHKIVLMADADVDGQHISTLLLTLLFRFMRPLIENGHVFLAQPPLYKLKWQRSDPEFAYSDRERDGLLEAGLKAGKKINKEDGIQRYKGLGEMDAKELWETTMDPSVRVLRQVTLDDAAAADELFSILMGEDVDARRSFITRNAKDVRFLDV
Sequence of DNA gyrase subunit A/DNA gyrase subunit B (P9WG47 whole entry): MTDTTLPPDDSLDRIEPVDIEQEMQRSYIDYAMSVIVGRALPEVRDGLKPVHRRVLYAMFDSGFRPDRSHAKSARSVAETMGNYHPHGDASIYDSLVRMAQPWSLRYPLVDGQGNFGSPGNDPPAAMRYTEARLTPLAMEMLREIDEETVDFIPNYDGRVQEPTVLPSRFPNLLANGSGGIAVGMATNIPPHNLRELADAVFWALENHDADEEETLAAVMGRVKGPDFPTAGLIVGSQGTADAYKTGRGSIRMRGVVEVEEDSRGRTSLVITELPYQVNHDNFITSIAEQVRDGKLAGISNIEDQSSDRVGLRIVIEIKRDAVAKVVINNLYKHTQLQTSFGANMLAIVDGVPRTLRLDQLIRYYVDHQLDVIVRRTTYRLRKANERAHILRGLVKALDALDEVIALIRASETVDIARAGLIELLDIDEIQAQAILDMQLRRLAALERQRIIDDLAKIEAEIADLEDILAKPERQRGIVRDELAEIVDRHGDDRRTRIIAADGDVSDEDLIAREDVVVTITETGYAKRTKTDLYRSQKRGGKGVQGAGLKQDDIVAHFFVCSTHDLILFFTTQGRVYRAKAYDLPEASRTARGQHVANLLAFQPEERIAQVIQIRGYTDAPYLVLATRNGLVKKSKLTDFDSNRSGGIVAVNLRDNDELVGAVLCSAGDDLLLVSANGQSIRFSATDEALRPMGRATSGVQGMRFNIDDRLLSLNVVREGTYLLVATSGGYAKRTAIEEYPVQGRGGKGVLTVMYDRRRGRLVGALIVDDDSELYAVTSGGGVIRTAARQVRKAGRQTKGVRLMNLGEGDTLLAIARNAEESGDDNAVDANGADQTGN

Row | SMILES | MIC (Staphylococcus aureus) [µM] | MIC [1] [µM] | MIC (Escherichia coli) [µM] | further results
1 | C[C@@H]1CN2c3c(cc4c(N5CC[C@@H](O)C5)noc4c3F)CC3(C(=O)NC(=O)NC3=O)[C@H]2[C@H](C)N1C#N | > 125 |  |  | 
2 | C[C@@H]1CN2c3c(cc4c(N5C[C@@H](O)[C@@H](O)C5)noc4c3F)CC3(C(=O)NC(=O)NC3=O)[C@H]2[C@H](C)O1 |  | 16 (≈ 7.83 µg/mL) |  | 
3 | CO[C@H]1CCN(c2noc3c(F)c4c(cc23)CC2(C(=O)NC(=O)NC2=O)[C@H]2[C@H](C)O[C@H](C)CN42)C1 | > 125 | 31 (≈ 15.1 µg/mL) | > 125 | IC50 [2]: 77 µM
4 | C[C@@H]1CN2c3c(cc4c(N5C(=O)OC[C@@H]5C)noc4c3F)CC3(C(=O)NC(=O)NC3=O)[C@H]2[C@H](C)N1O | > 125 | > 125 | > 125 | 
5 | C[C@@H]1CN2c3c(cc4c(OC[C@H]5CNC(=O)C5)noc4c3F)CC3(C(=O)NC(=O)NC3=O)[C@H]2[C@H](C)O1 | 31 (≈ 15.5 µg/mL) |  | 63 (≈ 31.6 µg/mL) | 
6 | C[C@@H]1CN2c3c(cc4c(OC[C@@H]5CNC(=O)C5)noc4c3F)CC3(C(=O)NC(=O)NC3=O)[C@H]2[C@H](C)O1 | > 125 | 2 (≈ 1 µg/mL) | > 250 | 
7 | C[C@@H]1CN2c3c(cc4c(OC[C@H]5CCC(=O)O5)noc4c3F)CC3(C(=O)NC(=O)NC3=O)[C@H]2[C@H](C)O1 | > 250 | 3.9 (≈ 1.96 µg/mL) | > 250 | 
8 | CN[C@H]1CCN(c2noc3c(F)c4c(cc23)CC2(C(=O)NC(=O)NC2=O)[C@H]2[C@H](C)O[C@H](C)CN42)C1 | 125 (≈ 60.8 µg/mL) | 63 (≈ 30.6 µg/mL) | 125 (≈ 60.8 µg/mL) | 
9 | C[C@H]1C[C@@H](C)[C@H]2N(C1)c1c(cc3c(OC[C@@H]4CCC(=O)N4)noc3c1F)CC21C(=O)NC(=O)NC1=O | 7.8 (≈ 3.9 µg/mL) | 16 (≈ 7.99 µg/mL) | 63 (≈ 31.5 µg/mL) | 
10 | COc1c(N2C[C@@H]3CCCN[C@@H]3C2)c(F)cc2c(=O)c(C(=O)O)cn(C3CC3)c12 [MOXIFLOXACIN] |  | 0.17 (≈ 0.0682 µg/mL) |  | MIC50 [3]: 0.12 µM (≈ 0.0482 µg/mL); MIC99 [3]: 0.19 µM (≈ 0.0763 µg/mL); MIC50 [4]: 0.041 µM (≈ 0.0165 µg/mL); MIC99 [4]: 0.07 µM (≈ 0.0281 µg/mL)
11 | C[C@@H]1CN2c3c(cc4c(N5CC[C@H](CO)C5)noc4c3F)CC3(C(=O)NC(=O)NC3=O)[C@H]2[C@H](C)O1 | > 125 | 16 (≈ 7.8 µg/mL) | > 125 | IC50 [2]: 18 µM
12 | C[C@@H]1CN2c3c(cc4c(N5CC[C@@H](O)C5)noc4c3F)CC3(C(=O)NC(=O)NC3=O)[C@H]2[C@H](C)O1 |  | 3.9 (≈ 1.85 µg/mL) |  | 
13 | C[C@@H]1CN2c3c(cc4c(-n5cncn5)noc4c3F)CC3(C(=O)NC(=O)NC3=O)[C@H]2[C@H](C)N1C#N | 16 (≈ 7.67 µg/mL) | 0.98 (≈ 0.47 µg/mL) | 63 (≈ 30.2 µg/mL) | 
14 | C[C@@H]1CN2c3c(cc4c(OCC[C@@H]5CCC(=O)N5)noc4c3F)CC3(C(=O)NC(=O)NC3=O)[C@H]2[C@H](C)O1 | 31 (≈ 16 µg/mL) | 3.9 (≈ 2.01 µg/mL) | > 125 | 
15 | CC(=O)N1[C@H](C)CN2c3c(cc4c(N5C(=O)OC[C@@H]5C)noc4c3F)CC3(C(=O)NC(=O)NC3=O)[C@H]2[C@@H]1C | > 125 | > 125 | > 125 | 
16 | C[C@@H]1CN2c3c(cc4c(N5C(=O)OC[C@@H]5C)noc4c3F)CC3(C(=O)NC(=O)NC3=O)[C@H]2[C@H](C)N1C#N | 1 (≈ 0.511 µg/mL) | 3.9 (≈ 1.99 µg/mL) | 3.9 (≈ 1.99 µg/mL) | 
17 | C[C@@H]1CN2c3c(cc4c(N5CC[C@H](C(=O)O)C5)noc4c3F)CC3(C(=O)NC(=O)NC3=O)[C@H]2[C@H](C)O1 | > 125 | > 125 | > 125 | 
18 | Cc1nnc(-c2noc3c(F)c4c(cc23)CC2(C(=O)NC(=O)NC2=O)[C@H]2[C@H](C)[C@@H](O)[C@H](C)CN42)o1 | > 250 | 16 (≈ 7.75 µg/mL) | > 250 | 
19 | C[C@@H]1CN2c3c(cc4c(N5CC[C@@](C)(O)C5)noc4c3F)CC3(C(=O)NC(=O)NC3=O)[C@H]2[C@H](C)O1 | > 250 | > 250 | > 250 | 
20 | C[C@@H]1CN2c3c(cc4c(N5CCC[C@H](O)C5)noc4c3F)CC3(C(=O)NC(=O)NC3=O)[C@H]2[C@H](C)O1 | 94 (≈ 45.8 µg/mL) | 16 (≈ 7.8 µg/mL) |  | 

Row | SMILES | MIC (Staphylococcus aureus) [µM] | MIC [1] [µM] | MIC (Escherichia coli) [µM] | further results
21 | C[C@@H]1CN2c3c(cc4c(OC[C@H]5CCC(=O)N5)noc4c3F)CC3(C(=O)NC(=O)NC3=O)[C@H]2[C@H](C)O1 |  | > 125 |  | 
22 | C[C@@H]1CN2c3c(cc4c(OC[C@H]5COC(=O)N5)noc4c3F)CC3(C(=O)NC(=O)NC3=O)[C@H]2[C@H](C)O1 | 63 (≈ 31.7 µg/mL) |  |  | 
23 | C[C@@H]1CN2c3c(cc4c(N5C[C@H](O)[C@@H](O)C5)noc4c3F)CC3(C(=O)NC(=O)NC3=O)[C@H]2[C@H](C)O1 |  | 31 (≈ 15.2 µg/mL) | > 125 | 
24 | C[C@@H]1CN2c3c(cc4c(N5CCC[C@@H](O)C5)noc4c3F)CC3(C(=O)NC(=O)NC3=O)[C@H]2[C@H](C)O1 |  | 10 (≈ 4.87 µg/mL) | > 125 | 
25 | C[C@@H]1CN2c3c(cc4c(OC[C@@H]5CCC(=O)N5)noc4c3F)CC3(C(=O)NC(=O)NC3=O)[C@H]2[C@H](C)N1C#N | > 125 | 0.49 (≈ 0.257 µg/mL) | > 125 | 
26 | Cc1nnc(-c2noc3c(F)c4c(cc23)CC2(C(=O)NC(=O)NC2=O)[C@H]2[C@H](C)O[C@H](C)CN42)o1 |  | 0.45 (≈ 0.212 µg/mL) | 31 (≈ 14.6 µg/mL) | 
27 | C[C@@H]1CN2c3c(cc4c(OC[C@@H]5CCC(=O)O5)noc4c3F)CC3(C(=O)NC(=O)NC3=O)[C@H]2[C@H](C)O1 | 3.9 (≈ 1.96 µg/mL) | 2 (≈ 1 µg/mL) | > 125 | 
28 | CO[C@H]1/C=C/O[C@@]2(C)Oc3c(C)c(O)c4c(O)c(c(/C=N/N5CCN(C)CC5)c(O)c4c3C2=O)NC(=O)/C(C)=C\C=C\[C@H](C)[C@H](O)[C@@H](C)[C@@H](O)[C@@H](C)[C@H](OC(C)=O)[C@@H]1C [RIFAMPIN] |  |  |  | MIC50 [3]: 0.24 µM (≈ 0.198 µg/mL); MIC99 [3]: 0.041 µM (≈ 0.0337 µg/mL); MIC50 [4]: 0.021 µM (≈ 0.0173 µg/mL); MIC99 [4]: 0.037 µM (≈ 0.0304 µg/mL)
29 | C[C@@H]1CN2c3c(cc4c(OC[C@@H]5CCC(=O)N5C)noc4c3F)CC3(C(=O)NC(=O)NC3=O)[C@H]2[C@H](C)O1 | 63 (≈ 32.5 µg/mL) | 3.9 (≈ 2.01 µg/mL) | 63 (≈ 32.5 µg/mL) | 
30 | C[C@@H]1CN2c3c(cc4c(N5C(=O)OC[C@@H]5C)noc4c3F)CC3(C(=O)NC(=O)NC3=O)[C@H]2[C@H](C)N1CC#N | > 125 | > 125 | > 125 | 
31 | C[C@@H]1CN2c3c(cc4c(N5CC[C@H](F)C5)noc4c3F)CC3(C(=O)NC(=O)NC3=O)[C@H]2[C@H](C)O1 | 2 (≈ 0.951 µg/mL) | 4 (≈ 1.9 µg/mL) | 31 (≈ 14.7 µg/mL) | 
32 | Cc1nnc(-c2noc3c(F)c4c(cc23)CC2(C(=O)NC(=O)NC2=O)[C@H]2[C@H](C)N(C#N)[C@H](C)CN42)o1 | > 125 | 1.5 (≈ 0.742 µg/mL) | > 125 | 
33 | C[C@@H]1CN2c3c(cc4c(N5CC[C@H](O)C5)noc4c3F)CC3(C(=O)NC(=O)NC3=O)[C@H]2[C@H](C)N1C#N |  | 7.8 (≈ 3.88 µg/mL) | > 125 | IC50 (DNA gyrase): 3.1 µM; MIC50 [3]: 5.35 µM (≈ 2.66 µg/mL); MIC99 [3]: 10.3 µM (≈ 5.12 µg/mL); MIC50 [4]: 1.75 µM (≈ 0.871 µg/mL); MIC99 [4]: 5.05 µM (≈ 2.51 µg/mL)
34 | C[C@@H]1CN2c3c(cc4c(N5CC[C@H](C#N)C5)noc4c3F)CC3(C(=O)NC(=O)NC3=O)[C@H]2[C@H](C)O1 | > 125 | 4 (≈ 1.93 µg/mL) | 31 (≈ 15 µg/mL) | IC50 [2]: 10 µM
35 | C[C@@H]1CN2c3c(cc4c(OC[C@@H]5CCC(=O)N5)noc4c3F)CC3(C(=O)NC(=O)NC3=O)[C@H]2[C@H](C)O1 | > 125 | 1 (≈ 0.501 µg/mL) | > 125 | IC50 [2]: 2.6 µM
36 | C[C@@H]1CN2c3c(cc4c(OC[C@@H]5COC(=O)N5)noc4c3F)CC3(C(=O)NC(=O)NC3=O)[C@H]2[C@H](C)O1 |  | 2 (≈ 1.01 µg/mL) | > 250 | 
37 | Cc1nnc(COc2noc3c(F)c4c(cc23)CC2(C(=O)NC(=O)NC2=O)[C@H]2[C@H](C)O[C@H](C)CN42)o1 | > 125 | 63 (≈ 31.5 µg/mL) | > 125 | 
38 | C[C@@H]1CN2c3c(cc4c(N5CC[C@H](N)C5)noc4c3F)CC3(C(=O)NC(=O)NC3=O)[C@H]2[C@H](C)O1 | 125 (≈ 59.1 µg/mL) | 63 (≈ 29.8 µg/mL) | 125 (≈ 59.1 µg/mL) | IC50 [2]: 34 µM
39 | C[C@@H]1CN2c3c(cc4c(N5C(=O)OC[C@@H]5C)noc4c3F)CC3(C(=O)NC(=O)NC3=O)[C@H]2[C@H](C)N1 | 63 (≈ 30.6 µg/mL) | > 125 | 31 (≈ 15.1 µg/mL) | 
40 | C[C@@H]1CN2c3c(cc4c(-n5cncn5)noc4c3F)CC3(C(=O)NC(=O)NC3=O)[C@H]2[C@H](C)O1 |  | 0.24 (≈ 0.109 µg/mL) | 2 (≈ 0.911 µg/mL) | IC50 (DNA gyrase): 1.7 µM; MIC50 [3]: 1.8 µM (≈ 0.82 µg/mL); MIC99 [3]: 3.8 µM (≈ 1.73 µg/mL); MIC50 [4]: 0.26 µM (≈ 0.118 µg/mL); MIC99 [4]: 0.65 µM (≈ 0.296 µg/mL); IC50 [2]: 18 µM
